Measurements: patent publication US20210161976A1, “BACTERIA ENGINEERED TO TREAT DISEASES THAT BENEFIT FROM REDUCED GUT INFLAMMATION AND/OR TIGHTENED GUT MUCOSAL BARRIER” (Synlogic Operating Company, Inc., priority 2016, published 2021)
pEC50: −log10 of the molar value. Like-named read-outs stand apart in the source and are kept apart here.

Key:
[1] = system: LPS-induced IFNγ secretion; assay: LPS-induction of IFNγ cell-based assay in human PBMCs (ELISA)
Method: To assess the activity of the acetate-producing strain SYN2001 in vitro, we employed the LPS-induction of IFNγ cell-based assay. Frozen normal human PBMCs from two independent donors (Lot #'s A4956 and A4924) were plated in triplicate at 1×10^6 cells/mL in 96-well plates in complete media. The cells were then incubated for 15 minutes with media containing either a dilution series of synthetic acetate (40 mM-0.08 Mm), SYN2001 supernatant (30 mM-0.03 mM acetate concentrations based on LC-MS determination) or untreated (negative control). After the 15-minute incubation period, complete media containing LPS was added to the cells to a final concentration of 100 ng/mL and the cells were further incubated overnight under these conditions. The following day supernatants were harvested from each of the different conditions and the IFNγ levels assessed by ELISA. […] We noted that the absolute levels of IFNγ production in the SYN2001 experiments was higher than in the purified acetate experiments, likely due to residual additional LPS in the supernatants from the bacterially-derived acetate. Nonetheless, the IC50s observed for the two acetate sources were very similar.

neutrophils = conditions: cited from earlier work
[2] = system: PnsrR-GFP reporter construct; assay: Nitric oxide inducible PnsrR-GFP reporter construct, fluorescence in plate reader; type: cell-based, E. coli Nissle; conditions: DETA-NO, two-fold decreased inducer, 96-well, relative florescence units
PXR = target: T1, PXR (Mus musculus, UniProt O54915); conditions: in vivo; cited from earlier work
T1 sequence (O54915 1-431): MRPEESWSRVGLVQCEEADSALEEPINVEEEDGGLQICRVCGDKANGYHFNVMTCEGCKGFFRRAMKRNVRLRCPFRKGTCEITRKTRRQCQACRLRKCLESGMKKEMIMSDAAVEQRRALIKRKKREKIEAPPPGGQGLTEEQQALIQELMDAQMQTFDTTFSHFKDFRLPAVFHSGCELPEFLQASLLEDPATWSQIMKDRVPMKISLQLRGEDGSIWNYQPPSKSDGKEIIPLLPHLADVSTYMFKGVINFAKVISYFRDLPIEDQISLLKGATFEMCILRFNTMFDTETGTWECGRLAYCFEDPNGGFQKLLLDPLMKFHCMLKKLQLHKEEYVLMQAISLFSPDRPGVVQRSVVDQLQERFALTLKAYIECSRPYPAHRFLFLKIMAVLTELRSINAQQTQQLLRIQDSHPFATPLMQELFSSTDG

[3] = system: gut motility and inflammation; conditions: rats, early phase of acute colitis; cited from earlier work
[4] = system: HT-29 colon adenocarcinoma cells; assay: Cell viability assay in HT-29 cells (trypan blue, Cellometer K2); conditions: 4 days, data not shown
[5] = system: Ptet-GFP reporter construct; assay: ATC-inducible Ptet-GFP reporter construct, fluorescence in plate reader; conditions: two-fold decreased inducer, 96-well, relative florescence units
Description: When induced by their cognate inducers, these constructs express GFP, which is detected by monitoring fluorescence in a plate reader at an excitation/emission of 395/509 nm, respectively.
These constructs, when induced by their cognate inducer, lead to high level expression of GFP, which is detected by monitoring fluorescence in a plate reader at an excitation/emission of 395/509 nm, respectively. […] Promoter activity is expressed as relative florescence units.

IL-22 = target: T2, IL-22 (Homo sapiens, UniProt Q9GZX6); assay: Anti-IL-22 neutralizing antibody inhibition of STAT3 activation in Colo205 cells; type: cell-based; conditions: IC50 of anti-IL-22 neutralizing antibody against STAT3 activation by the listed IL-22 source (3 ng/mL)
T2 construct: IL-22 fused to a cleavable PhoA-secretion tag to mediate Sec-dependent secretion into the periplasm; PhoA secretion tag (21 amino acids) (N, cleaved yes); made in house; filtered culture supernatant
T2 sequence (Q9GZX6 34-179): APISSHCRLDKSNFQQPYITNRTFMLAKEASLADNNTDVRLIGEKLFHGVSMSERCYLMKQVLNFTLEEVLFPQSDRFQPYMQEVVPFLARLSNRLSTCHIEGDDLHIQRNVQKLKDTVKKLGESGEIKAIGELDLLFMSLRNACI
Method: To verify that the STAT3 activation elicited by supernatants from SYN3001 was indeed due to IL-22 signaling, Colo205 cells were stimulated with IL-22 supernatants derived from SYN3001 at 3 ng/mL in the presence of increasing concentrations of an anti-IL-22 neutralizing antibody. rLI-22 in the absence of the neutralizing antibody served as a positive control.

STAT3 = STAT3 activation in Colo205 cells by IL-22 containing supernatants; type: cell-based; conditions: average of 5 experiments
Method: To assess the biological activity of IL-22 produced by SYN3001 (IL-22 secreting strain), titrations of SYN3001 and SYN3000 (DOM mutant, non IL-22 secreting negative control strain) supernatants (starting at 150 ng/mL and titrated in 1:3 dilutions) were added to Colo205 cells and the activation of STAT3 was assessed. […] In contrast, SYN3000 had no effect on STAT3 activity.

CC(=O)O [Acetate (synthetic)]
pEC50 ([1]; decrease of LPS-induced IFNγ, human PBMCs donor 1, LPS 100 ng/mL, acetate concentration, read-out: EC50-donor 1): 2.51
pEC50 ([1]; decrease of LPS-induced IFNγ, human PBMCs donor 2, LPS 100 ng/mL, acetate concentration, read-out: EC50-donor 2): 2.66

CC(=O)O [Acetate]
pEC50 ([1]; human PBMC, donor 1, 3 experiments in triplicate, LPS 100 ng/mL, read-out: EC50 on LPS-induced IFNγ secretion, Donor 1): 2.51
pEC50 ([1]; human PBMC, donor 2, 3 experiments in triplicate, LPS 100 ng/mL, read-out: EC50 on LPS-induced IFNγ secretion, Donor 2): 2.66
LPS-induced secretion of IFNγ ([1]; primary human PBMC, two donors, FIG. 26G/26H): dose-dependent decrease

Nc1ccccc1C(=O)CC(N)C(=O)O (stereo not shown) [Kynurenine]
apoptosis in neutrophils (neutrophils): induce apoptosis

NCCN(CCN)/[N+]([O-])=N/O [NO, diethylenetriamine-nitric oxide adduct]
induction of GFP expression [2]: able to induce the expression of GFP

O=C(O)CCc1c[nH]c2ccccc12 [indole 3-propionic acid (IPA), indole 3-propionic acid]
PXR ligand (PXR): ligand for PXR

O=C(O)c1cc(=O)c2ccccc2[nH]1 [kynurenic acid]
gut motility and inflammation [3]: decreased gut motility and inflammation

CCCC(=O)O [synthetic butyrate, butyrate]
effect on cell viability [4]: did not have any appreciable effect

anhydrous tetracycline [ATC]
induction of GFP expression [5]: able to induce the expression of GFP

rIL-22
IC50 (IL-22): 3.70 ng/mL
EC50 (STAT3): 1.56 ng/mL
